Measurements: patent publication US20160264616A1, “THERAPEUTIC COMPOUNDS AND METHODS” (priority 2015, published 2016)

Tests used:
[1] = target: T1, RGS17:Gαo protein:protein interaction (Homo sapiens, UniProt Q9UGC6); experiment: Compound reversibility, washed/unwashed AlphaScreen; format: binding; conditions: RGS17 incubated with 100 μM, washed three times
T1 construct: This is the same RGS17 construct used in the high throughput screening campaign that is fully active despite the N-terminal truncation; made in house; host or cells: BL21 (DE3) E. coli for Gαo
T1 sequence (Q9UGC6 84-200 limits assumed): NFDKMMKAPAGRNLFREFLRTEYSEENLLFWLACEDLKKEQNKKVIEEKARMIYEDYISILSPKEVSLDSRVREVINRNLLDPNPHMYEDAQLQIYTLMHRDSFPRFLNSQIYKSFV
Protocol: To determine the reversibility of compound inhibition of the RGS17:Gαo protein:protein interaction, RGS17 was treated with 100 μM compound. This concentration was determined through the earlier dose-response experiments to inhibit the AlphaScreen assay >25% for each of the compounds (UI-5, UI-1590, UI-1907 and UI-1956). Upon completion of incubation with compounds, each sample was washed three times with ASB buffer. This method will promote dissociation of any compounds that are non-covalent where as any covalent modifiers would result in persistent protein:protein interaction inhibition.
First, stock solutions of all four compounds were made at a 3× concentration or 300 μM for a final concentration of 100 μM. The final DMSO concentration in the assay was 1%. Next, RGS17 and Gαo were diluted into 300 μL of assay buffer (AlphaScreen Buffer: ASB) (50 mM HEPES, 100 mM NaCl, 0.1% Lubrol, 1% bovine serum albumin [BSA], pH 8.0) at a 3× concentration of 30 nM. Next, 7.2 μL of AlphaScreen beads were added to each separate protein. The protein and bead solution was incubated on ice for 30 mins in the dark. Upon completion of protein:bead conjugation, 600 μL of ASB was added to RGS17. To the Gαo sample, 279 μL of AMF (final concentration of 10 μM NaF, […], 10 nM AlCl3, and 5 μM GDP) and 321 μL of ASB were added. The RGS17 sample was split into 90 μL tubes and 90 μL of each compound or DMSO vehicle was added to the RGS17:bead mixture and incubated for 15 mins. Upon completion of compound incubation, the RGS17:bead mixture was washed 3 times with 1.8 mL of ASB. The RGS17 protein:bead samples were pelleted after each wash through centrifugation at 15, 000×g for 10 mins. After the final wash step, the RGS17 protein:bead pellet was resuspended in 180 μL of ASB. Next, to a 384 white plate, 30 μL of the RGS17 protein:bead: compound samples either washed or unwashed were added to each well in triplicate. Finally, 15 μL of the Gαo protein:bead sample was added to each well. The plate was incubated at room temperature, in the dark, for 1.25 hours and read on a Synergy2 plate reader (Biotek, Wisnooski, Vt.) with a sensitivity setting of 200, excitation at 680 nm, and emission read at 570 nm. All data was analyzed with Graphpad Prism 6.0. All data was compared to DMSO controls and corrected for possible bead loss due to washing steps.

[2] = tested on: RGS17ΔN:Gαo interaction in HEK293T cells; experiment: RGS localization assay, GFP-RGS17ΔN co-transfected with hGαo in HEK293T cells; format: cell-based, human
Protocol: HEK293T cells co-transfected with GFP-RGS17FL and human Gαo were treated with UI-5, UI-1590 and […] to determine if the compounds could disrupt the RGS17:Gαo interaction that could drive RGS17 to the membrane. […] To test this hypothesis, we constructed a GFP-RGS17 fusion protein with an N-terminal truncation, removing the cysteine-rich motif. […] As a negative control, we tested a known RGS4 inhibitor (CCG-50014) in this assay against RGS17ΔN (21). […] Finally, to ensure the localization was not due to the GFP tag, pAcGFP vector was co-transfected into HEK293T cells with hGαo. […] Cross-sectional fluorescence intensity analysis was used to quantify the intensity of signal at a cross section of the cell. Average signal at the membrane and in the cytoplasm were calculated and change in signal intensity was assessed between time zero and time final. […] Additionally, the control condition of CCG-50014 was subject to the same analyses as the lead compound.
Twenty four (24) hours prior to plating, assay plates were coated with 30 μl poly-D-lysine per well. Human Embryonic Kidney 293T cells (HEK293T) were plated in to 96 well tissue culture treated glass bottom view plates (Perkin Elmer, Part No. 6005430) at a density of 25K cells per well. 24 hours post seeding, cells were transfected with hGαo in pCDNA 3.1(+), pAcGFPRGS17 FL, pAcGFP RGS17ΔN, empty pAcGFP, hGαo+pAcGFPRGS17 FL, hGαo+pAcGFP RGS17ΔN, or hGαo+empty pAcGFP vector using Lipofectamine 2000 (Life Technologies) as the transfection reagent and according to manufacture protocols. 24 hours post transfection, cell media was removed and replaced with […] serum free, phenol red free DMEM (Life Technologies, Ref No. 31053-028). Cells were then imaged using a Zeiss LSM510 confocal microscope (University of Iowa Central Microscopy Core). Images were analyzed using NIH Image J software and Graphpad Prism 6.
Compounds at 2× final desired concentrations were diluted in serum free, phenol red free DMEM.

[3] = target: T2, RGS17 (Homo sapiens, UniProt Q9UGC6); experiment: Isothermal titration calorimetry (ITC); format: binding; conditions: for Gibbs free energy of binding / binding enthalpy ΔH / entropic component TΔS / Kd: ITC; for Kd: 25 C, read-out: dissociation constant (Kd)
T2 construct: This is the same RGS17 construct used in the high throughput screening campaign that is fully active despite the N-terminal truncation; made in house
T2 sequence (Q9UGC6 84-200 limits assumed): T1 sequence (Q9UGC6 84-200 limits assumed)
Protocol: ITC was used to determine the binding properties of the lead compounds in solution by determining the dissociation constant (Kd) and stoichiometry (n) of the interaction between RGS17 and the inhibitor compounds.
RGS17 was concentrated in ITC sample buffer (50 mM HEPES pH 7.5, 100 mM NaCl and 1 mM beta-mercaptoethanol) at 50 μM. […] DMSO concentration in both compound and RGS17 sample was 1%, to account for any DMSO effects. Total injections for UI-1956 were set to 5 μL with a duration time of 10 secs and spacing of 240 secs and for UI-5 were set to 12 μL with a duration time of 24 secs and spacing of 240 secs. The total amount of injections for UI-1956 and UI-5 were, 32 and 23 respectively. All experiments were conducted on a GE MicroCal VP-ITC System (General Electric; Piscataway, N.J.) at 25 C. Heats of dilution were determined by averaging the heat evolved by the last five injections and subtracted from the raw data. The values for affinity, stoichiometry and change in enthalpy were then determined using the ORIGIN software provided by the manufacturer.

| Compound | reversibility of inhibition after washing [1] | delocalization of RGS17ΔN from the membrane ([2]; 100 μM compound) | dissociation constants as determined by isothermal titration calorimetry (summary) [3] | delocalization / cellular activity ([2]; 10 μM compound) | time to full delocalization of GFP-RGS17 from the membrane ([2]; 10 μM compound) | time to full delocalization of GFP-RGS17 from the membrane ([2]; 100 μM compound) | Gibbs free energy of binding [3] | binding enthalpy ΔH [3] | entropic component TΔS [3] | Kd [3] |
| --- | --- | --- | --- | --- | --- | --- | --- | --- | --- | --- |
| CC(C)=CCC[C@]1(C)C=Cc2c(O)c3c(c(CC=C(C)C)c2O1)O[C@]12C(=C[C@@H]4C[C@H]1C(C)(C)O[C@@]2(C/C=C(/C)C(=O)O)C4=O)C3=O [UI-1907] | reversible | not | – | – | – | – | – | – | – | – |
| CC1=C(O)C(=O)C=C2C1=CC=C1[C@@]2(C)CC[C@@]2(C)[C@@H]3C[C@](C)(C(=O)O)CC[C@]3(C)CC[C@]12C [UI-1590] | reversible | delocalization occurs | low μM to nM | had cellular activity | 20 min | 5 min | – | – | – | – |
| C[n+]1cc2c3c(ccc2c2ccc4cc5c(cc4c21)OCO5)OCO3 [UI-5] | reversible | delocalization occurs | low μM to nM | had cellular activity | 30 min | 5 min | -8.168 kcal/mol | -0.148 kcal/mol | 8.0202 kcal/mol | 1020 nM |
| O=c1c(-c2cc(O)c(O)c(O)c2)coc2cc(O)c(O)c(O)c12 [UI-1956, 5,6,7-trihydroxy-3-(3,4,5-trihydroxyphenyl)-4H-chromen-4-one] | reversible | delocalization occurs | low μM to nM | had cellular activity | 30 min | 20 min | -8.389 kcal/mol | -2.158 kcal/mol | 6.2313 kcal/mol | 714 nM |
